The nature of data set [1]: Liver microsomal metabolism stability test, dog. It counts as in vitro ADME. As to conditions: dog liver microsomes, 60 min. The procedure: (§1) The purpose of this experiment was to detect the stability of the example compounds in liver microsomes of rats, dogs and humans.
(§2) • Formulation of working solution of compounds: compound stock solution was added to phosphate buffer to a final concentration of 20 μM.
(§3) Dilution was performed with 100 mM phosphate buffer to a final concentration of 0.625 mg/mL.
(§4) NADPH (reduced nicotinamide adenine dinucleotide phosphate) and UDPGA (uridine diphosphate glucuronic acid) were weighed, 100 mM phosphate buffer was added, and the final concentration was 20 mM.
(§5) 1 mg of Alamethicin was weighed, and 200 μL of DMSO was added to formulate a 5 mg/mL solution. Then dilution was performed with phosphate buffer to a final concentration of 50 μg/mL.
(§6) Stop solution: the stop solution contains 100 ng/mL labetalol hydrochloride and 400 ng/mL tolbutamide and cold acetonitrile as internal standard.
(§7) 400 μL of formulated liver microsomes, 25 μL of compound working solution and 25 μL of Alamethicin were added in sequence to the 96-well plate, and pre-incubated at 37° C. for 10 min. Then 50 μL of formulated NADPH/UDPGA was added to start the reaction and the mixture was incubated at 37° C. The total volume of the reaction system was 500 μL. The final contents of each component are as follows:
(§8) • Instrument: Shimadzu LC-30 AD; • Chromatographic column: XBridge® C18 (50*4.6 mm, 5 μm particle size); • Mobile phase: A: 0.1% formic acid solution, B: methanol Wash gradient: 0.2-1.6 min 5% A to 95% A, 3.0-3.1 min 95% A to 5% A Run time: 4.0 min.
(§9) • Instrument: API5500 liquid chromatography mass spectrometer, AB Sciex; • Ion source: electrospray ionization source (ESI); • Drying gas: N2, temperature 500° C.; • Electrospray voltage: 5000 V; • Detection mode: positive ion detection; • Scanning mode: reaction monitoring (MRM) mode.
(In general: Microsomes from liver hold many membrane-bound enzymes, among them those of drug oxidation.)

Data set [2] concerns spontaneously hypertensive rat (SHR) model. The data set can be described thus: Pharmacodynamic evaluation on blood pressure in spontaneously hypertensive rats. It counts as in vivo. The note with it: P.O, 30 mpk, 1-8 h after administration, P<0.05. The source says: This experiment used a spontaneously hypertensive rat (SHR) model to evaluate the pharmacodynamic effect of the test compounds on the blood pressure and heart rate of the model.
Kent Scientific CODA non-invasive blood pressure system.
Spontaneously hypertensive rats (SHR) were provided by Beijing Vital River Laboratory Animal Technology Co., Ltd., male, 150-200 g, 13-15 weeks old, 50 rats.
After animals arrived at the experimental facility, the animals were adapted to the animal facility for 5-7 days. 4.2 After the adaptation period, the animals were adapted to the tail oversleeve restrain for 3 days, and the tail oversleeve restrain was performed twice a day. After the last restrain adaptation, the basal blood pressure was measured, and the animals were randomly divided into groups according to the basal blood pressure. There was no significant difference between the average systolic blood pressure of animals in each group, and the number of animals in each group met the requirements of statistical testing and pharmacodynamic guidelines. 4.3 On the second day after grouping, the animals were administered according to experimental design and grouping (P.O, 5 mL/kg), and the systolic blood pressure (SBP), diastolic blood pressure (DBP), mean arterial pressure (MAP) and heart rate (HR) of the animals were measured before administration and at 1, 2, 4, 6, 8 and 24 h after administration using tail oversleeve method.
Statistical differences between groups were analyzed by Two-way ANOVA test. Among them, P<0.05 indicated a significant difference, and P<0.01 indicated an extremely significant difference.

Data set [3] in a line: Liver microsomal metabolism stability test, rat. It counts as in vitro ADME. As to conditions: rat liver microsomes, 60 min. The procedure: as §1, §2, §3, §4, §5, §6, §7, §8, §9
The nature of data set [4]: Liver microsomal metabolism stability test, human. Type of data set: in vitro ADME. As to conditions: human liver microsomes, 60 min. The procedure:
as §1, §2, §3, §4, §5, §6, §7, §8, §9

As for `[2H]C([2H])(c1ccc(-c2ccccc2S(=O)(=O)Nc2noc(C)c2Cl)c(COCC)c1)N1C(=O)C2(CCCC2)N=C1CCCC` [Example 44, 4′-((2-butyl-4-oxo-1,3-diazaspiro[4.4]non-1-en-3-yl)methyl-d2)-N-(4-chloro-5-methylisoxazol-3-yl)-2′-(ethoxymethyl)-[1,1′-biphenyl]-2-sulfonamide], the Remaining rate in data set [1] is 24.6%; in data set [3] it was 29.4%; in data set [4], 33.0%. Also, the “blood pressure (systolic blood pressure, diastolic blood pressure, mean arterial pressure) compared with the vehicle group” value in data set [2] is reported as “significantly reduced blood pressure”.
The matching figures for `CCCCC1=NC2(CCCC2)C(=O)N1Cc1ccc(-c2ccccc2S(=O)(=O)Nc2noc(C)c2Cl)c(COCC)c1` [Example 45, 2-[4-[(2-butyl-4-oxo-1,3-diazaspiro[4.4]non-1-en-3-yl)methyl]-2-(ethoxymethyl)phenyl]-N-(4-chloro-5-methyl-isoxazol-3-yl)benzsulfamide]: 23.6%, 23.3%, 32.0% and “significantly reduced blood pressure”.

The values above are taken from patent publication US20240368123A1, “AROMATIC RING-CONTAINING BIOLOGICAL ANTAGONIST, AND PREPARATION METHOD THEREFOR AND USE THEREOF” (SHANGHAI HANSOH BIOMEDICAL CO., LTD., priority 2021, published 2024).
